From paper PMC9792776 (Frontiers in Pharmacology, 2022)
pEC50, pKi: −log10 of the molar value.

Tests used:
[1] = molecular target: T1, CYP2C9 (Homo sapiens, UniProt P11712); test: CYP2C9 inhibition in human liver microsomes (diclofenac probe)
Procedure: Ki=IC50/1+S/Km (1) Where IC50 signifies the half-maximum inhibitory concentration; S, the concentration of P450 marker substrate; and K m , the Michaelis constant within the Michaelis-Menten equation, which is in turn used to characterize substrate-enzyme binding kinetics.
The Michaelis constant (K m ) of CYP2C9 incubated with diclofenac was obtained from reported data ([Lee et al., 2014]). Methods used to calculate the Ki of CYP2C19 and CYP2C9 were similar.

[2] = molecular target: MATE2K (Homo sapiens, UniProt Q86VL8); test: Transporter substrate/inhibitor assessment, MATE2K; type: in vitro ADME
Chain of MATE2K (Q86VL8 1-566 isoform Q86VL8-3, species assumed): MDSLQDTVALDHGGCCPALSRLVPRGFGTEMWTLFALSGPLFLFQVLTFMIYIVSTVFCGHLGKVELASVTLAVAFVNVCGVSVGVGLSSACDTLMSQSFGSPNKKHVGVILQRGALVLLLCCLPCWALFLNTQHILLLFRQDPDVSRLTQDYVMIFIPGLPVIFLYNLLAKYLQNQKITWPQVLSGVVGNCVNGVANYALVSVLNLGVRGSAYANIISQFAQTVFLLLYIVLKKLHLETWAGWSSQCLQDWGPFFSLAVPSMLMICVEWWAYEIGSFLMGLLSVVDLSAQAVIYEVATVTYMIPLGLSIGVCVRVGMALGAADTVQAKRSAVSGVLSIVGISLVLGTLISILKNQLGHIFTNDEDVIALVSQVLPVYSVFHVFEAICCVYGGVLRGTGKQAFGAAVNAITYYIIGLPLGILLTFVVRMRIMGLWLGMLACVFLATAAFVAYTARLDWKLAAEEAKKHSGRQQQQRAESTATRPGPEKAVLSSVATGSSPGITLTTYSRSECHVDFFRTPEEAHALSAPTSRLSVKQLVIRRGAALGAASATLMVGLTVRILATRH

[3] = tested on: CYP1A2; test: CYP1A2 mRNA induction in cultured human hepatocytes; type: cell-based; conditions: in vitro studies
[4] = Log Po:w (octanol-water partition coefficient); type: physicochemical
Text: TABLE 1 Model development and model parameters. | column: Value

[5] = Food effect clinical study in Chinese patients with CML (NCT03882281); type: in vivo, human
Text: In the first study, on food effects, 12 Chinese patients with CML were randomly divided into two groups (A and B) and the experiments divided into two periods. […] After a seven- day washout period, subjects in both groups took the drug interchangeably in period 2 (NCT03882281).

[6] = molecular target: T1, CYP2C9; test: Intrinsic clearance in human recombinant CYP2C9
[7] = tested on: CYP2C9
[8] = molecular target: T2, CYP3A4 (Homo sapiens, UniProt P08684); test: Clinical DDI study with itraconazole and rifampicin in healthy American (White) subjects; conditions: for Cmax: plasma, oral, Cmax Obs.
T2 sequence (P08684 whole entry): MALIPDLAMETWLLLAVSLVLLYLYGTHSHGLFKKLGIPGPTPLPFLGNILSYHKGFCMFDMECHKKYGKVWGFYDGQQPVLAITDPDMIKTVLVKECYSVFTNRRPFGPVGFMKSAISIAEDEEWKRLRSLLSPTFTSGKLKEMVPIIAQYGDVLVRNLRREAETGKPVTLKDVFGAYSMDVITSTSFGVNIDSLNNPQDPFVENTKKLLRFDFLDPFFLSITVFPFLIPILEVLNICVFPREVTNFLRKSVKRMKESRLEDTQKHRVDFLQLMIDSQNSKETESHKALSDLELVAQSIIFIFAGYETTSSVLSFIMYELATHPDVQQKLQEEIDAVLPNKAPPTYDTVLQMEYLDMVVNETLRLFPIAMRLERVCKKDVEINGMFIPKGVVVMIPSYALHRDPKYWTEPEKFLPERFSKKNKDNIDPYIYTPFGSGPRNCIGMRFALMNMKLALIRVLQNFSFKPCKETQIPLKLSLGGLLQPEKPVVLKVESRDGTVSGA
Procedure: After a 3-day washout period, they were pretreated with 200 mg of oral itraconazole once daily for 4 days to inhibit CYP3A4 (Days 5–8). […] After a 3-day washout, subjects were pretreated with 600 mg of oral rifampicin once daily for 7 days to induce CYP3A4 (Days 5–11). […] Blood samples were collected immediately before and after drug administration at 0.5, 1, 2, 4, 6, 8, 12, 24, 48, 72, and 96 h.

[9] = tested on: T315I-mutated CML; conditions: 40 mg QOD, 28-day cycles over 24 months, ref Jiang et al., 2022, cited from earlier work
[10] = tested on: imatinib-resistant and imatinib-sensitive gastrointestinal stromal tumor cell lines; parameters: method as in Liu et al., 2019; conditions: imatinib-resistant and imatinib-sensitive GIST cell lines; ref Liu et al., 2019; cited from earlier work
[11] = Blood/plasma (B/P) ratio in healthy volunteer blood; type: in vitro ADME, human
Text: Besides, the B/P ratio was obtained from healthy volunteer blood, however, in patients with CML, too many myeloid cells become granulocytes (red blood cells, platelets and several white blood cell types). So, red blood cell count might change B/P ratio in CML patients. […] Furthermore, the model simulation for liver cirrhosis patients was not validated by clinical data. We believe that further research is needed on this point.

[12] = Human mass balance study with [14C]olverembatinib (NCT04126707); type: in vivo
[13] = Phase 1 dose escalation study (renal clearance); conditions: human, in vivo; 12 Chinese patients, 50 mg oral on Day 1
[14] = In vitro Caco-2 cell permeability; type: in vitro ADME; conditions: human
Text: (§1) The first-order absorption model has different absorption rate constants (ka) and fraction available from dosage form (fa) to simulate absorption processes in fasting and fed states. […] Caco-2 (human colorectal adenocarcinoma) cells are used to model the intestinal epithelial barrier. The Simcyp (Version 19.0, Certara Inc., Sheffield, UK) minimal PBPK, which treats all organs other than the intestine and liver as a single compartment ([Rowland Yeo et al., 2010]), was selected, along with a single adjusting compartment (SAC) distribution model. The SAC is a nonphysiologic compartment that permits adjustment to the drug concentration profile in the systemic compartment ([Ke et al., 2016]).

[15] = molecular target: T2, CYP3A4; conditions: recombinant enzyme
[16] = PBPK model parameters optimized or assumed (Simcyp minimal PBPK); parameters: species or system human
Text: as §1

[17] = Fraction unbound (fu) in human plasma; type: in vitro ADME
[18] = Chinese CML patients, fed, 30 mg SD
[19] = single radiolabeled 30 mg dose, healthy subjects
[20] = Fasting, optimized based on observed data
[21] = Fed, optimized based on observed data
[22] = optimized based on observed data

T1 sequence (P11712 whole entry): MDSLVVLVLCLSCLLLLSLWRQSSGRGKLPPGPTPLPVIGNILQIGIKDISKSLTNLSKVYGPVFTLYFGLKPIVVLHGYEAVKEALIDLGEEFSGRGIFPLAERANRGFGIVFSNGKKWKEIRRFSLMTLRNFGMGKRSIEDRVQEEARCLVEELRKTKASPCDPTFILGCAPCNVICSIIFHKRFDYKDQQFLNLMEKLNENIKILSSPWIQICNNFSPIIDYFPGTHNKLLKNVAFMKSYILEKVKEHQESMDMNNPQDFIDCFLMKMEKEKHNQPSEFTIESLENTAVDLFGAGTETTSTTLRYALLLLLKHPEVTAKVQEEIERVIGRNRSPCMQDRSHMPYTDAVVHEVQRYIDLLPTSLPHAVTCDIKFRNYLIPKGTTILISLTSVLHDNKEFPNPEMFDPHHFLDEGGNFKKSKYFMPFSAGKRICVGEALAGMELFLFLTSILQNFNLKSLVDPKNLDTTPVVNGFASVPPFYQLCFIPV

In the case of `Cc1ccc(C(=O)Nc2ccc(CN3CCN(C)CC3)c(C(F)(F)F)c2)cc1C#Cc1cnc2[nH]ncc2c1` [olverembatinib, Olverembatinib], the pKi [1] was 5.95, the “CYP2C9 inhibition, strength” value ([1]; microsomes) was “weak” and the “substrate or inhibitor of MATE2K” value [2] was “neither a substrate nor inhibitor”. For the same compound, the “CYP1A2 induction, strength” value [3] was “weak”, the “Log Po:w” value [4] was 3.6 and the “AUC Obs.” value ([5]; Chinese CML patients, fasting, 30 mg SD) was 237 h?ng/mL. For the same compound, the “AUC Obs.” value [5, 18] was 276 h?ng/mL, the “Tmax Obs. (median)” value [5, 18] was 6.00 h and the half-life ([5]; human, plasma, 30 mg, oral, patients with CML, data on file, read-out: mean apparent terminal elimination half-life (t1/2) (converted)) was 32.7 h. It also gave a Tmax ([5]; human, plasma, 30 mg, oral, patients with CML, data on file, read-out: median time to reach peak plasma concentration (Tmax)) of 6 h, a Cmax ([5]; human, plasma, oral, 30 mg, Chinese CML patients, fasting, 30 mg SD) of 8.72 ng/mL and a Cmax ([5]; human, plasma, oral, 30 mg, Chinese CML patients, fed, 30 mg SD) of 10.8 ng/mL. For the same compound, the Tmax ([5]; human, plasma, oral, Chinese CML patients, fasting, 30 mg SD, read-out: Tmax Obs. (median)) was 6 h, the “CLint CYP2C9” value [6] was 0.022 µL/min/pmol CYP and the “CYP2C9 induction, strength” value ([7]; hepatocytes) was “weak”. For the same compound, the pEC50 ([7]; human) was 6.49, the “AUC Obs.” value ([8]; White healthy volunteers, fed, 20 mg SD, olverembatinib alone) was 125 h?ng/mL and the “AUC Obs.” value ([8]; White healthy volunteers, fed, 40 mg SD, olverembatinib alone) was 302 h?ng/mL. For the same compound, the “AUC Obs.” value ([8]; coadministration with itraconazole, healthy White volunteers) was 330 h?ng/mL, the “AUC Obs.” value ([8]; coadministration with rifampicin, healthy White volunteers) was 73.0 h?ng/mL and the “AUC decrease after rifampicin administration” value ([8]; human, in vivo) was 76%. The “AUC increase after itraconazole treatment” value ([8]; human, in vivo, 200 mg) was 163%, the Cmax ([8]; human, 20 mg, White healthy volunteers, fed, 20 mg SD, olverembatinib alone) was 5.26 ng/mL and the Cmax ([8]; human, 40 mg, White healthy volunteers, fed, 40 mg SD, olverembatinib alone) was 12.7 ng/mL. For the same compound, the Cmax ([8]; human, coadministration with itraconazole, healthy White volunteers) was 9.14 ng/mL, the Cmax ([8]; human, coadministration with rifampicin, healthy White volunteers) was 4.54 ng/mL and the “major hematologic response (MaHR), patients” value ([9]; CML-AP, n = 37 without MaHR at baseline) was 78.4%. The “major cytogenetic response (MCyR), patients” value ([9]; CML-CP, n = 121 without MCyR at baseline) was 79.3%, the “antiproliferative activity compared with ponatinib” value [10] was “equivalent or more potent antiproliferative activity” and the “mean conc (N=3)” value ([11]; blood H) was 43.5. For the same compound, the “mean conc (N=3)” value ([11]; blood L) was 0.395, the “mean conc (N=3)” value ([11]; blood M) was 4.01 and the “mean conc (N=3)” value ([11]; plasma H) was 45.9. For the same compound, the “mean conc (N=3)” value ([11]; plasma L) was 0.25, the “mean conc (N=3)” value ([11]; plasma M) was 2.95 and the “AUC Obs.” value ([12]; Chinese healthy volunteers, fasting, 26.85 mg SD) was 153 h?ng/mL. For the same compound, the Cmax ([12]; male, human, plasma, oral, Chinese healthy volunteers, fasting, 26.85 mg SD) was 8.09 ng/mL, the Tmax ([12]; male, human, plasma, oral, Chinese healthy volunteers, fasting, 26.85 mg SD, read-out: Tmax Obs. (median)) was 6 h and the “cleared drug unchanged in feces” value [12, 19] was “About 23.95%”. For the same compound, the “eliminated as the parent drug in urine” value [12, 19] was 0.02%, the “dose recovered in urine” value ([12]; single radiolabeled 30 mg dose, healthy subjects, within 96 h) was 1.57% and the “dose recovered in feces” value ([12]; single radiolabeled 30 mg dose, healthy subjects, within 216 h) was 87.68%. For the same compound, the CL renal [13] was 2.2 mL/min, the Papp [14] was 0.08 ×10⁻⁶ cm/s and the “CLint CYP3A4” value [15] was 0.2 µL/min/pmol CYP. The fa [16, 20] was 0.574 (Fasting), the ka [16, 20] was 0.213 (Fasting) 1/h and the fa [16, 21] was 0.8 (Fed). For the same compound, the ka [16, 21] was 0.136 (Fed) 1/h, the fraction unbound ([16]; human, microsomal incubation, assumed equal to fu,p, read-out: fu,mic/fu,inc) was 0.0005 and the Kp ([16]; human, optimized based on observed data, read-out: Kp Scalar) was 6.01. The “ISEF CYP2C9” value ([16]; optimized based on fmCYP2C9) was 1.2938, the “ISEF CYP3A4” value ([16]; optimized based on fmCYP3A4) was 0.7761 and the SAC kin [16, 22] was 0.0471 h⁻¹. The SAC kout [16, 22] was 0.0177 h⁻¹, the Vsac [16, 22] was 38.02 L/kg and the fraction unbound ([17]; mean of three test concentrations, read-out: mean fu (fu,p, fraction unbound in plasma)) was 0.0005. For the same compound, the fraction unbound at 80 ng/ml ([17]; test concentration 80 ng/ml, read-out: fu (N=3)) was 0.0007, the fraction unbound at 400 ng/ml ([17]; test concentration 400 ng/ml, read-out: fu (N=3)) was 0.0004 and the fraction unbound at 4000 ng/ml ([17]; test concentration 4000 ng/ml, read-out: fu (N=3)) was 0.0004.
